Results published in ChEMBL document CHEMBL3865835, “α-Glucosidase and α-Amylase Inhibitors from Arcytophyllum thymifolium” (J Nat Prod, 2016).
Activity calls are given as the source filed them. The calls are words filed in the database; no cut-off is given here.

Key:
[1] = molecular target: T1, Pancreatic alpha-amylase (Sus scrofa) (UniProt P00690); experiment: (§1) Inhibition of hog pancreas alpha-amylase using starch as substrate preincubated for 10 mins followed by substrate addition measured after 10 mins by dinitrosalicylic acid color reagent-based UV-Vis spectrophotometric analysis
T1 sequence (whole entry): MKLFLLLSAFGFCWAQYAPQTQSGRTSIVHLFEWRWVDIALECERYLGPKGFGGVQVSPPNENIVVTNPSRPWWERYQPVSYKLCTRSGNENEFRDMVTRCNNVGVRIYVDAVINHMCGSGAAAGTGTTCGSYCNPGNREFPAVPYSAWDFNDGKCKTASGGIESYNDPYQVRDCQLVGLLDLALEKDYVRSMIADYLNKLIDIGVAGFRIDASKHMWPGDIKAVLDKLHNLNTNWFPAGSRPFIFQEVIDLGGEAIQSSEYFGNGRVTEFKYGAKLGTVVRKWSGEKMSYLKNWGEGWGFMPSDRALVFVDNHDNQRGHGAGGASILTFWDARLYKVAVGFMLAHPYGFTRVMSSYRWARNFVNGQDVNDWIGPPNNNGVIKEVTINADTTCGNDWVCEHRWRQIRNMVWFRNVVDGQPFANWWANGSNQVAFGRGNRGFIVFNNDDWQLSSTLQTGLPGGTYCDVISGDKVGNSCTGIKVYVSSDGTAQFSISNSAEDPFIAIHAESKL

[2] = test system: Saccharomyces cerevisiae; experiment: (§2) Inhibition of Saccharomyces cerevisiae alpha-glucosidase using 4-nitrophenyl alpha-D-glucopyranoside as substrate after 10 mins by UV-Vis spectrophotometric analysis
[3] = molecular target: T2, Pancreatic alpha-amylase (Sus scrofa, UniProt P00690); experiment: as §1
T2 sequence (P00690 whole entry): T1 sequence (whole entry)

[4] = as §2
[5] = test system: Saccharomyces cerevisiae; experiment: Potency index, ratio of acarbose IC50 to compound IC50 for Saccharomyces cerevisiae alpha-glucosidase

| Structure (SMILES) | inhibition [1] | inhibition [2] | also measured |
| --- | --- | --- | --- |
| O=C(/C=C/c1ccc(O)c(O)c1)O[C@@H]1C[C@](O)(C(=O)O)C[C@@H](O)[C@H]1O | Active | – | – |
| O=c1c(O[C@@H]2O[C@H](CO)[C@H](O)[C@H](O)[C@H]2O[C@@H]2O[C@H](CO)[C@@H](O)[C@H](O)[C@H]2O)c(-c2ccc(O)cc2)oc2cc(O)cc(O)c12 | Active | – | – |
| O=C(O)C1=CO[C@@H](O[C@@H]2O[C@H](CO)[C@@H](O)[C@H](O)[C@H]2O)[C@@H]2C(CO)=C[C@@H](O)[C@H]12 | Active | – | – |
| CC(=O)OCC1=C[C@H](O)[C@@H]2C(C(=O)O)=CO[C@@H](O[C@@H]3O[C@H](CO)[C@@H](O)[C@H](O)[C@H]3O)[C@H]12 | – | – | IC50 [3]: 69.4 µM |
| C[C@H]1O[C@H](O[C@H]2[C@H](O)[C@@H](O)[C@@H](O[C@H]3[C@H](O)[C@@H](O)C(O)O[C@@H]3CO)O[C@@H]2CO)[C@H](O)[C@@H](O)[C@@H]1N[C@H]1C=C(CO)[C@@H](O)[C@H](O)[C@H]1O (some centres not stated) [ACARBOSE] | – | – | IC50 [4]: 403 µM |
| CC(=O)OCC1=C[C@@H]2OC(=O)C3=CO[C@@H](O[C@@H]4O[C@H](CO)[C@@H](O)[C@H](O)[C@H]4O)[C@H]1[C@@H]32 | Active | – | – |
| C=C(C)[C@H]1Cc2c(c(O)cc3ccc(=O)oc23)O1 | Active | Active | – |
| CC(C)=CCOc1cc(O)c2c(c1)O[C@H](c1ccc(O)c(O)c1)CC2=O | – | – | IC50 [4]: 28.1 µM; Ratio IC50 [5]: 10 |
| COc1cc(O)c2c(=O)c(O)c(-c3ccc(O)c(O)c3)oc2c1 [RHAMNETIN] | – | – | IC50 [3]: 73.9 µM |

More lines, main results first:

| inhibition [1] | inhibition [2] | Structure (SMILES) | also measured |
| --- | --- | --- | --- |
| Active | Active | COc1cc2ccc(=O)oc2c2c1O[C@](C)(CO)C(O)=C2 | – |
| Active | – | C[C@]1(CO)Oc2c(O)cc3ccc(=O)oc3c2C=C1O | – |
| Active | Active | C=C(C)C(O)Cc1c(O)c(OC)cc2ccc(=O)oc12 (configuration not stated) | – |
| – | Active | COc1cc2ccc(=O)oc2c(O)c1O | – |
